The source of these data is BindingDB's records for doi:10.1021/ml400235c (Korea Research Institute of Technology, 2013).

By IC50 is commonly meant the concentration at which inhibition is half-maximal.

Test [1] is described as follows: Antagonist activity at PAR1 in human platelet rich plasma assessed as inhibition of haTRAP-induced platelet aggregation preincubated for 1 hr followed by haTRAP addition measured for 10 mins by spectrophotometric analysis.
Test [2] can be described thus: Antagonist activity at PAR1 in washed human platelets assessed as inhibition of haTRAP-induced platelet aggregation preincubated for 1 hr followed by haTRAP addition measured for 10 mins by spectrophotometric analysis.

For `CC(=O)N(C)C1C[C@@H]2CCCC[C@@H]2[C@H]1/C=C/c1ccc(-c2cccc(F)c2)cn1` (stereo not given in full), the IC50 turned out to be 8900 nM in test [1] and 210 nM in test [2]. As for `CS(=O)(=O)OC1C[C@@H]2CCCC[C@@H]2[C@H]1/C=C/c1ccc(-c2cccc(F)c2)cn1` (stereo not given in full), in test [2], the IC50 amounted to 6 nM.

On to `CCOC(=O)N[C@@H]1CC[C@@H]2[C@@H](C1)C[C@H]1C(=O)O[C@H](C)[C@H]1[C@H]2C=Cc1ccc(-c2cccc(F)c2)cn1` [Ethyl [(3aR,4aR,8aR,9aS)-9(S)-[(E)-2-[5-(3-fluorophenyl)-2-pyridinyl]ethenyl]dodecahydro-1(R)-methyl-3-oxonaphtho[2,3-c]furan-6(R)-yl]carbamate], for which the half-maximal inhibitory concentration (IC50) was found to be 120 nM in test [1] and 1.5 nM in test [2]. Turning to `Fc1cccc(-c2ccc(/C=C/[C@@H]3[C@H]4CCCC[C@H]4CC34OCCO4)nc2)c1`, the half-inhibitory concentration (IC50) in test [1] worked out at 4100 nM; in test [2] it was 410 nM. In the same order, the values of `CS(=O)(=O)NC1C[C@@H]2CCCC[C@@H]2[C@H]1/C=C/c1ccc(-c2cccc(F)c2)cn1` (stereo not given in full) are 3900 nM and 140 nM. For the compound `CN(C1C[C@@H]2CCCC[C@@H]2[C@H]1/C=C/c1ccc(-c2cccc(F)c2)cn1)S(C)(=O)=O` (stereo not given in full), the IC50 is 97 nM in test [1] and 2.2 nM in test [2]. For the compound `O=C1NCC2(C[C@@H]3CCCC[C@@H]3[C@H]2C=Cc2ccc(-c3cccc(F)c3)cn2)O1` (stereo not given in full), the values for the IC50 in test [1] and in test [2] were 210 nM and 7.2 nM, respectively. Turning to `CC1(OC(N)=O)C[C@@H]2CCCC[C@@H]2[C@H]1C=Cc1ccc(-c2cccc(F)c2)cn1` (stereo not given in full), the IC50 was 100 nM in test [1] and 2.9 nM in test [2].
